Source: publication PMC7766762, “New Eudesmane-Type Sesquiterpene Glycosides from the Leaves of Aster koraiensis” (Plants, 2020)
“Also recorded” adds a separate entry of the source.

What was measured:
[1] = Cell viability (MTT assay) in LPS-treated RAW 264.7 macrophages; format: cell-based; details: mouse, RAW 264.7 macrophages treated with LPS, compound 100 μM and LPS 1 μg/mL, pretreated 1 h, incubated 24 h, read-out: Cell Viabilities (%)
Method: [table] Cell viability and nitrite levels were measured using MTT and Griess reaction assays, respectively.

[2] = test system: LPS-stimulated NO production in RAW 264.7 macrophages; assay: LPS-induced NO production in RAW 264.7 macrophages (Griess reaction); format: cell-based; details: for IC50 / inhibition at 100 µM: Mus musculus, RAW264.7, RAW 264.7; for IC50: LPS 1 μg/mL, 24 h; for inhibition at 100 µM: compound 100 μM and LPS 1 μg/mL, pretreated 1 h, incubated 24 h, read-out: Inhibition Rate (%) NO
Method: (§1) All the isolates 1–9 obtained from the leaves of A. koraiensis were evaluated for their inhibitory effects of LPS-stimulated NO and PGE2 production in RAW 264.7 macrophages at non-toxic concentrations (Table 3).
(§2) Figure 5 Inhibitory effects of compound 7 on LPS-stimulated NO (A) and PGE2 productions (B) in RAW 264.7 macrophages. Cells were pretreated with different concentrations (25, 50, or 100 μM) of compound 7 for 1 h, then with LPS (1 μg/mL), and then were incubated for 24 h. l-N^6-(1-Iminoethyl)lysine (l-NIL, 10 μM) and N-[2-(cyclohexyloxy)-4-nitrophenyl]-methanesulfonamide (NS-398, 10 μM) were used as positive NO and PGE2 production inhibitors, respectively.
Cell viability and nitrite levels were measured using MTT and Griess reaction assays, respectively.

[3] = test system: LPS-stimulated PGE2 production in RAW 264.7 macrophages; assay: LPS-induced PGE2 production in RAW 264.7 macrophages (EIA kit); format: cell-based; details: for IC50 / inhibition at 100 µM: Mus musculus, RAW264.7, RAW 264.7; for IC50: LPS 1 μg/mL, 24 h; for inhibition at 100 µM: compound 100 μM and LPS 1 μg/mL, pretreated 1 h, incubated 24 h, read-out: Inhibition Rate (%) PGE2
Method: as §1, §2
PGE2 levels in cell culture mediums were determined using EIA kits (R&D Systems, MN) as reported in the previous paper.

[4] = LPS-stimulated RAW 264.7 cells, non-toxic concentrations

IC50 [2] [µM]	IC50 [3] [µM]	melting point [°C]	Structure (SMILES)	viability at 24 h, 100 μM [1] [%]	inhibition at 100 µM [2] [%]	inhibition at 100 µM [3] [%]	Inhibitory effect on NO production (in words) [2, 4]	Inhibitory effect on PGE2 production (in words) [3, 4]
> 100	> 100	167.2	CC1=CCC(OC2OC(CO)C(O)C(O)C2O)C2(C)C(O)CC(C(C)C)C(OC3OC(CO)C(O)C(O)C3O)C12 [Compound 1, (1R,5S,6R,7S,9S,10S)-1,6,9-trihydroxy-eudesm-3-ene-1,6-di-O-β-D-glucopyranoside]	102	1.79	0		
> 100	> 100		O=C(/C=C/c1ccc(O)c(O)c1)O[C@@H]1[C@H](O)C[C@@](O)(C(=O)O)C[C@H]1OC(=O)/C=C/c1ccc(O)c(O)c1 [Compound 9, 4,5-dicaffeoylquinic acid]	100	4.64	20.4		
> 100	> 100		CC1=CC[C@@H](O)[C@@]2(C)[C@H]1[C@H](O[C@@H]1O[C@H](CO)[C@@H](O)[C@H](O)[C@H]1O)[C@H](C(C)C)C[C@@H]2O [Compound 2, (1R,5S,6R,7S,9S,10R)-1,6,9-trihydroxy-eudesm-3-ene-6-O-β-D-glucopyranoside]	105	3.2	0		
> 100	> 100	230	CC1=CCC(OC2OC(CO)C(O)C(O)C2O)C2(C)C(O)CC(C(C)(C)O)C(OC3OC(CO)C(O)C(O)C3O)C12 [Compound 3, (1R,5S,6S,7R,9S,10S)-1,6,9,11-tetrahydroxy-eudesm-3-ene-1,6-di-O-β-D-glucopyranoside]	94	4.66	10.5		
> 100	> 100		O=C(/C=C/c1ccc(O)c(O)c1)O[C@@H]1C[C@](O)(C(=O)O)C[C@@H](OC(=O)/C=C/c2ccc(O)c(O)c2)[C@H]1O [Compound 8, 3,5-dicaffeoylquinic acid]	93.4	6.25	1.27		
> 100	> 100		CC1=CC[C@@H](O)[C@@]2(C)[C@H]1[C@H](O[C@@H]1O[C@H](CO)[C@@H](O)[C@H](O)[C@H]1O)[C@H](C(C)(C)O)C[C@@H]2O [Compound 4, (1R,5S,6S,7R,9S,10R)-1,6,9,11-tetrahydroxy-eudesm-3-ene-6-O-β-D-glucopyranoside]	102	1.31	6.15		
95.7	> 100		COc1cc(/C=C/C(=O)O[C@H]2C[C@@H](C(C)C)[C@@H](O[C@@H]3O[C@H](CO)[C@@H](O)[C@H](O)[C@H]3O)[C@H]3C(C)=CC[C@@H](O)[C@]23C)ccc1O [Compound 7, (1R,5S,6R,7S,9S,10R)-9-O-(E-feruloyl)-1,6,9-trihydroxy-eudesm-3-ene-6-O-β-D-glucopyranoside]	89.3	53.1	41.3	weak inhibitory effects; also recorded: weak inhibitory activities	weak inhibitory effects; also recorded: weak inhibitory activities
> 100	> 100		CC1=CC[C@@H](O)[C@]2(C)[C@@H](OC(=O)/C=C/c3ccc(O)cc3)C[C@@H](C(C)C)[C@@H](O[C@@H]3O[C@H](CO)[C@@H](O)[C@H](O)[C@H]3O)[C@@H]12 [Compound 5, (1R,5S,6R,7S,9S,10R)-9-O-(E-p-coumaroyl)-1,6,9-trihydroxy-eudesm-3-ene-6-O-β-D-glucopyranoside]	104	8.39	0		
> 100	> 100		CC1=CC[C@@H](O)[C@]2(C)[C@@H](OC(=O)/C=C\c3ccc(O)cc3)C[C@@H](C(C)C)[C@@H](O[C@@H]3O[C@H](CO)[C@@H](O)[C@H](O)[C@H]3O)[C@@H]12 [Compound 6, (1R,5S,6R,7S,9S,10R)-9-O-(Z-p-coumaroyl)-1,6,9-trihydroxy-eudesm-3-ene-6-O-β-D-glucopyranoside]	108	7.01	2.16		
